The source of these data is US9926529B2, “Derivation of neural stem cells and dopaminergic neurons from human pluripotent stem cells” (International Stem Cell Corporation, priority 2012, dated 2018).

Structures can show the parent of a compound that is named as a salt. Where two headings read alike, the source gives them in different places.

In test [1] the test system is hPSC-NSCs. Description: RT-PCR expression of dopamine neuron genes in hPSC-NSCs treated with small molecule hits. It is filed as cell-based, human. To be noted: for fold induction at 2.5 µM: Homo sapiens, Neuron, 336 h. As to the method:
(§1) The method specifically involved treating both hESC-H9-NSCs (Invitrogen) and hPSC-NSCs with Purmorphamine (2 μM) and FGF8 (100 ng/mL) in NB medium [NeuroBasal medium, 1× GlutaMAX, 1× N2/B27 Supplement (Invitrogen)] for 7 days. After 7 days of Purmorphamine and FGF8 treatment, the NSCs were dissociated with Accutase (Sigma) and plated 20,000 cells/mL into Matrigel coated 96 well plates and treated with small molecule library (Torcris 1120 Biologically Active Compounds) at 2.5 μM final concentration for two weeks (FIG. 6A). Two weeks after treatment with small molecules, all wells were visually observed and scored based on neurite density and dopamine release. For measuring neurite density, cells were fixed with 4% paraformaldehyde and phase contrast images were acquired using Cellavista Cell Imaging System (Roche Applied Science) from randomly selected fields. Neurite density was measured using the Cellavista density software image processing program. Each experimental condition was done in duplicate wells, and at least three independent experiments were conducted to acquire the final results.
(§2) Conditioned medium from the top neurite inducers (Table 1) (wells containing the highest density of neurites compare to control 0.1% DMSO treated) were collected and analyzed using a dopamine ELISA assay (Cosmo Bio). Conditioned medium was collected from samples containing 50,000 cells per well and centrifuged at 3000 RPM to remove cell debris. Supernatant was then collected and analyzed for quantitative determination of dopamine using a commercial dopamine ELISA assay kit (CusaCosmo Bio). Data analysis was performed using the microtiter plate reader (BIO-TEK Synergy 2). The results presented are from three independent experiments (n=3) and represented as mean±standard error of mean (s.e.m.) and statistical analysis was performed using the two-tailed Student's t-test with a confidence level of 95% (α=0.05) with statistical significance of P<0.05. Additionally, total RNA from each well were collected and analyze by RT-PCR for expression of TuJ1, MAP2, TH, GRK2, EN1, DAT, AADC, PAX2, NURR1, PITX3 and LMX1B from hPSC-NSCs (Table 2). […] Analysis of the ELISA data indicated the top small molecule neurite inducers produced higher levels of dopamine than control non-treated cells (1.5 ng/mL). […] The percentages of TH positive cells produced by chemical treatment with Kenpaullone (33%), Guggulsterone (35%), Kynurenic Acid (19%), Immedthridine Dihydrobromide (21%), and Dimaprit Dihydrochloride (18%) were higher than 15% of TH positive cells obtained from hPSC-NSCs differentiated for ≥1 month using a standard dopaminergic differentiation medium (BDNF 20 ng/mL, GDNF 20 ng/mL, cAMP 200 μM, Abscorbic Acid 200 μM, TGFβ3 2 ng/mL and DAPT).
Total RNA from at least triplicate samples with around 1 million cells each was isolated using either QIAsymphony automatic purification system or RNeasy Plus Mini kit, according to manufacturer's instructions (Qiagen). Total RNA was used for reverse transcription with the iScript cDNA synthesis kit (Biorad) and Px2 Thermal Cycler (Thermo Scientific). To analyze gene expression, PCR reactions were performed in duplicate using 1/25-th of the cDNA per reaction and the QuantiTect Primer Assay and Quantitest SYBR Green master mix (Qiagen). qPCR was performed using the Rotor-Gene Q (Qiagen) 5 min at 95° C., 5 s at 92° C., and 20 s at 60° C. for 37 cycles followed by melt to check the specificity of the amplicons from 50 to 99° C. raising by 1° C. each step. Relative quantification was performed against a standard curve and quantified values were normalized against the input determined by PPIG. The primers used for the analysis are listed in Supplementary Table S1. […]

Test [2] relates to hPSC-NSCs. Description: Percentage of TH positive cells produced by chemical treatment. The conditions noted are these: chemical treatment 2.5 μM for two weeks. It is filed as cell-based, human. On the procedure: as §1, §2
The mark [3] stands for this setting: hPSC-NSCs primed 7 days with Purmorphamine and FGF8, small molecule 2.5 μM for two weeks, read-out: DDC (AADC) expression by RT-PCR.
Where [4] appears, read: hPSC-NSCs primed 7 days with Purmorphamine and FGF8, small molecule 2.5 μM for two weeks, read-out: EN1 expression by RT-PCR.
Setting [5] is: hPSC-NSCs primed 7 days with Purmorphamine and FGF8, small molecule 2.5 μM for two weeks, read-out: KCNJ6 expression by RT-PCR.
Where [6] appears, read: hPSC-NSCs primed 7 days with Purmorphamine and FGF8, small molecule 2.5 μM for two weeks, read-out: MAP2 expression by RT-PCR.
Where [7] appears, read: hPSC-NSCs primed 7 days with Purmorphamine and FGF8, small molecule 2.5 μM for two weeks, read-out: NR4A2 (NURR1) expression by RT-PCR.
The mark [8] stands for this setting: hPSC-NSCs primed 7 days with Purmorphamine and FGF8, small molecule 2.5 μM for two weeks, read-out: TH1 expression by RT-PCR.
[9] abbreviates: hPSC-NSCs primed 7 days with Purmorphamine and FGF8, small molecule 2.5 μM for two weeks, read-out: Tubb3 expression by RT-PCR.
The mark [10] stands for this setting: read-out: SLC6A3 (DAT) expression by RT-PCR.
The mark [11] stands for this setting: hPSC-NSCs primed 7 days with Purmorphamine and FGF8, small molecule 2.5 μM for two weeks, read-out: LMX1B expression by RT-PCR.
The mark [12] stands for this setting: hPSC-NSCs primed 7 days with Purmorphamine and FGF8, small molecule 2.5 μM for two weeks, read-out: Pax2 expression by RT-PCR.
The mark [13] stands for this setting: hPSC-NSCs primed 7 days with Purmorphamine and FGF8, small molecule 2.5 μM for two weeks.

As to `CN(C)CCCSC(=N)N` [Dimaprit dihydrochloride], the fold induction at 2.5 µM in the test on hPSC-NSCs [1] (setting [3]) was found to be 31.9; in the test with hPSC-NSCs [1] (setting [4]) it was 15.5; in the test on hPSC-NSCs [1] (setting [5]) it was 0.16; in the test on hPSC-NSCs [1] (setting [6]) it was 12.4; in the test on hPSC-NSCs [1] (setting [7]), 1.87; in the test on hPSC-NSCs [1] (hPSC-NSCs primed 7 days with Purmorphamine and FGF8, small molecule 2.5 μM for two weeks, read-out: PITX3 expression by RT-PCR), 0.45. Besides, the fold induction at 2.5 µM was 9.02 in the test on hPSC-NSCs [1] (setting [8]) and 9.62 with hPSC-NSCs [1] (setting [9]). In the test with hPSC-NSCs [2], the “percentage of TH positive cells” value came to 18%.

With `c1cc(Cc2cnc[nH]2)ccn1` [Immethridine dihydrobromide], the fold induction at 2.5 µM in the test on hPSC-NSCs [1] (setting [10]) was 33.6; in the test on hPSC-NSCs [1] (setting [3]) it was 28.2; in the test with hPSC-NSCs [1] (setting [4]) it was 11.8; in the test on hPSC-NSCs [1] (setting [5]) it was 0.22; in the test with hPSC-NSCs [1] (setting [11]), 7.66; with hPSC-NSCs [1] (setting [6]), 12.7. Moreover, the fold induction at 2.5 µM in the test on hPSC-NSCs [1] (setting [7]) came out at 0.52; with hPSC-NSCs [1] (setting [12]) it was 41.2; in the test on hPSC-NSCs [1] (setting [8]) it was 9.72; with hPSC-NSCs [1] (setting [9]), 10.6. Also, in the test on hPSC-NSCs [2], the “percentage of TH positive cells” value was 21%.

For `O=C1Cc2c([nH]c3ccc(Br)cc23)-c2ccccc2N1` [Kenpaullone], the fold induction at 2.5 µM with hPSC-NSCs [1] (setting [10]) turned out to be 108; with hPSC-NSCs [1] (setting [3]) it was 11.1; with hPSC-NSCs [1] (setting [4]), 11; in the test on hPSC-NSCs [1] (setting [5]) it was 0.12; in the test with hPSC-NSCs [1] (setting [6]), 8.17; with hPSC-NSCs [1] (setting [7]), 0.05. Moreover, the fold induction at 2.5 µM in the test on hPSC-NSCs [1] (setting [8]) turned out to be 2.15; in the test on hPSC-NSCs [1] (setting [9]), 9.61. In the test on hPSC-NSCs [2], the “percentage of TH positive cells” value turned out to be 33%.

Consider `O=C(O)c1cc(=O)c2ccccc2[nH]1` [Kynurenic acid], for which the fold induction at 2.5 µM amounted to 37.5 with hPSC-NSCs [1] (setting [3]); 9.25 with hPSC-NSCs [1] (setting [4]); 0.07 in the test with hPSC-NSCs [1] (setting [5]); 6.36 with hPSC-NSCs [1] (setting [11]); 9.12 with hPSC-NSCs [1] (setting [6]); 0.27 with hPSC-NSCs [1] (setting [7]). The fold induction at 2.5 µM in the test with hPSC-NSCs [1] (setting [12]) is 1.16; with hPSC-NSCs [1] (hPSC-NSCs primed 7 days with Purmorphamine and FGF8, small molecule 2.5 μM for two weeks, read-out: SLC6A3 (DAT) expression by RT-PCR) it was 3.41; in the test with hPSC-NSCs [1] (setting [8]) it was 16.8; in the test with hPSC-NSCs [1] (setting [9]) it was 6.43. For the same molecule, the “percentage of TH positive cells” value with hPSC-NSCs [2] came to 19%.

Consider `Cl.N=C(N)NC(=N)Nc1cccc(Cl)c1` [m-Chlorophenylbiguanide hydrochloride], for which, in the test on hPSC-NSCs [1] (setting [13]), the “DDC (AADC) expression by RT-PCR” value is given as 69.41, the “EN1 expression by RT-PCR” value was 7.96, the “KCNJ6 (GRK2) expression by RT-PCR” value was 1.65 and the “LMX1B expression by RT-PCR” value was 3.73. Further, in the test with hPSC-NSCs [1] (setting [13]), the “MAP2 expression by RT-PCR” value is given as 9.6, the “NR4A2 (NURR1) expression by RT-PCR” value worked out at 5.51, the “Pax2 expression by RT-PCR” value came out at 0.28 and the “SLC6A3 (DAT) expression by RT-PCR” value worked out at 1.53. In addition, in the test on hPSC-NSCs [1] (setting [13]), the “TH1 expression by RT-PCR” value stood at 6.67 and the “Tubb3 expression by RT-PCR” value was 4.97.

As for `O=C(O)/C=C/CO` [trans-4-Hydroxycrotonic acid], the fold induction at 2.5 µM was found to be 6.11 with hPSC-NSCs [1] (setting [10]); 69.7 with hPSC-NSCs [1] (setting [3]); 12.7 in the test with hPSC-NSCs [1] (setting [4]); 0.22 in the test on hPSC-NSCs [1] (setting [5]); 12.4 with hPSC-NSCs [1] (setting [6]); 4.49 in the test with hPSC-NSCs [1] (setting [7]). In addition, the values for the fold induction at 2.5 µM with hPSC-NSCs [1] (setting [8]) and in the test on hPSC-NSCs [1] (setting [9]) were 13.2 and 10.8, respectively.

For the molecule AM580, in the test with hPSC-NSCs [1] (setting [13]), the “DDC (AADC) expression by RT-PCR” value stood at 81.43, the “EN1 expression by RT-PCR” value is given as 12.94, the “KCNJ6 (GRK2) expression by RT-PCR” value was determined as 2.73 and the “LMX1B expression by RT-PCR” value was found to be 2.16. Further, in the test with hPSC-NSCs [1] (setting [13]), the “MAP2 expression by RT-PCR” value is 8.55, the “NR4A2 (NURR1) expression by RT-PCR” value is listed as 7.11, the “Pax2 expression by RT-PCR” value came to 0.1 and the “SLC6A3 (DAT) expression by RT-PCR” value was determined as 0.66. For the same molecule, in the test on hPSC-NSCs [1] (setting [13]), the “TH1 expression by RT-PCR” value is listed as 5.28 and the “Tubb3 expression by RT-PCR” value was 4.58.
